Data published in ChEMBL document CHEMBL3102798, “Stapled Vasoactive Intestinal Peptide (VIP) Derivatives Improve VPAC2 Agonism and Glucose-Dependent Insulin Secretion” (ACS Med Chem Lett, 2013).
pEC50: −log10 of the molar value. Numbered stars: 1 amine (or outer) side, 2 acyl side, 3 side chain; on linkers, the order of the positions; unused ones are H or OH. Bridge positions count the residues as written; N and C are the ends. Square brackets hold non-standard residues; d marks the D form. Peptide text beside a SMILES is read from it. X1 = C[C@@](CCCCC=[*:3])(N[*:1])C(=O)[*:2]; S5 = C=CCCC[C@](C)(N)C(=O)O

Assays:
[1] = biological target: T1, Vasoactive intestinal polypeptide receptor 2 (Homo sapiens, UniProt P41587); test: Agonist activity at human VPAC2 expressed in CHO Flp-in cells assessed as accumulation of cAMP after 30 mins by TR-FRET assay; format: functional, cell-based
T1 sequence (P41587 whole entry): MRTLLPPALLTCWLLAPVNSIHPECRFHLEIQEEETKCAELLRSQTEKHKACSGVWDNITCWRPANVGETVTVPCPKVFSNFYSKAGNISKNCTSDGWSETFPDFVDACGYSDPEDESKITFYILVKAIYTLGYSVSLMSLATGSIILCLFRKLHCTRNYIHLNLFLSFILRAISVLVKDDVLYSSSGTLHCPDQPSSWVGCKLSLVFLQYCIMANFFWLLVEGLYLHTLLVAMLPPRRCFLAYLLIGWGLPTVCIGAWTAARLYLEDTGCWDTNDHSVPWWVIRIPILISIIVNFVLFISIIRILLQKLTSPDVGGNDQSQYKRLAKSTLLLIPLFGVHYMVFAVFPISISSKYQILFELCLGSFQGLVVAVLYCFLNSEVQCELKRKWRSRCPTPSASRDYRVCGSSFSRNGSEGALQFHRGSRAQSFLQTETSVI

[2] = Stability of the compound in phosphate buffer assessed as compound remaining at pH 7.4 after 15 mins by LC-MS-MS analysis in presence of trypsin; format: ADME; conditions: phosphate buffer with trypsin, read-out: Stability
[3] = Apparent passive permeability across apical to basolateral side in human Caco2 cells at 10 uM after 30 to 60 mins by LC/MS analysis; format: ADME, cell-based; conditions: Caco-2

Row | Compound | pEC50 [1] | remaining at 0.25 h [2] [%] | Papp A→B at 10 µM [3] [×10⁻⁶ cm/s]
1 | C=CCCC[C@](C)(NC(=O)[C@H](CCC(N)=O)NC(=O)[C@H](CCCCN)NC(=O)[C@H](CCCN=C(N)N)NC(=O)[C@H](CC(C)C)NC(=O)[C@H](CCCN=C(N)N)NC(=O)[C@@H](NC(=O)[C@H](Cc1ccc(O)cc1)NC(=O)[C@H](CC(N)=O)NC(=O)[C@H](CC(=O)O)NC(=O)[C@@H](NC(=O)[C@H](Cc1ccccc1)NC(=O)[C@@H](NC(=O)[C@H](C)NC(=O)[C@H](CC(=O)O)NC(=O)[C@H](CO)NC(=O)[C@@H](N)Cc1cnc[nH]1)C(C)C)[C@@H](C)O)[C@@H](C)O)C(=O)N[C@@H](C)C(=O)N[C@H](C(=O)N[C@@H](CCCCN)C(=O)N[C@@](C)(CCCC=C)C(=O)N[C@@H](Cc1ccc(O)cc1)C(=O)N[C@@H](CC(C)C)C(=O)N[C@@H](CC(N)=O)C(=O)N[C@@H](CO)C(=O)N[C@H](C(=O)N[C@@H](CC(C)C)C(=O)N[C@@H](CC(N)=O)C(=O)NCC(=O)N[C@@H](CCCCN)C(=O)O)[C@@H](C)CC)C(C)C (H-HSDAVFTDNYTRLRKQ[S5]AVK[S5]YLNSILNGK-OH) | 8.83 |  | 
2 | C=CCCC[C@](C)(NC(=O)[C@H](CCC(N)=O)NC(=O)[C@H](CCCCN)NC(=O)[C@H](CCCN=C(N)N)NC(=O)[C@](C)(CCCC=C)NC(=O)[C@H](CCCN=C(N)N)NC(=O)[C@@H](NC(=O)[C@H](Cc1ccc(O)cc1)NC(=O)[C@H](CC(N)=O)NC(=O)[C@H](CC(=O)O)NC(=O)[C@@H](NC(=O)[C@H](Cc1ccccc1)NC(=O)[C@@H](NC(=O)[C@H](C)NC(=O)[C@H](CC(=O)O)NC(=O)[C@H](CO)NC(=O)[C@@H](N)Cc1cnc[nH]1)C(C)C)[C@@H](C)O)[C@@H](C)O)C(=O)N[C@@H](C)C(=O)N[C@H](C(=O)N[C@@H](CCCCN)C(=O)N[C@@H](CCCCN)C(=O)N[C@@H](Cc1ccc(O)cc1)C(=O)N[C@@H](CC(C)C)C(=O)N[C@@H](CC(N)=O)C(=O)N[C@@H](CO)C(=O)N[C@H](C(=O)N[C@@H](CC(C)C)C(=O)N[C@@H](CC(N)=O)C(=O)NCC(=O)N[C@@H](CCCCN)C(=O)O)[C@@H](C)CC)C(C)C | 8.86 | 0.7 | < 0.1
3 | H-HSDAVFTDNYTRLRKQIAVKKYLNSILNGK-OH | 9.85 | 0.3 | < 0.1
4 | CC[C@H](C)[C@H](NC(=O)[C@H](CCC(N)=O)NC(=O)[C@H](CCCCN)NC(=O)[C@H](CCCNC(=N)N)NC(=O)[C@H](CC(C)C)NC(=O)[C@H](CCCNC(=N)N)NC(=O)[C@@H](NC(=O)[C@H](Cc1ccc(O)cc1)NC(=O)[C@H](CC(N)=O)NC(=O)[C@H](CC(=O)O)NC(=O)[C@@H](NC(=O)[C@H](Cc1ccccc1)NC(=O)[C@@H](NC(=O)[C@H](C)NC(=O)[C@H](CC(=O)O)NC(=O)[C@H](CO)NC(=O)[C@@H](N)Cc1cnc[nH]1)C(C)C)[C@@H](C)O)[C@@H](C)O)C(=O)N[C@@H](C)C(=O)N[C@H](C(=O)N[C@@H](CCCCN)C(=O)N[C@@H](CCCCN)C(=O)N[C@@H](Cc1ccc(O)cc1)C(=O)N[C@@H](CC(C)C)C(=O)N[C@@]1(C)CCCC/C=C\CCCC[C@@](C)(C(=O)NCC(=O)N[C@@H](CCCCN)C(=O)O)NC(=O)[C@H](CC(C)C)NC(=O)[C@H]([C@@H](C)CC)NC(=O)[C@H](CO)NC1=O)C(C)C (H-HSDAVFTDNYTRLRKQIAVKKYL[X1]SIL[X1]GK-OH; staple (Z) 24-28) | 9.41 |  | 
5 | C=CCCC[C@](C)(NC(=O)[C@H](CC(C)C)NC(=O)[C@@H](NC(=O)[C@H](CO)NC(=O)[C@](C)(CCCC=C)NC(=O)[C@H](CC(C)C)NC(=O)[C@H](Cc1ccc(O)cc1)NC(=O)[C@H](CCCCN)NC(=O)[C@H](CCCCN)NC(=O)[C@@H](NC(=O)[C@H](C)NC(=O)[C@@H](NC(=O)[C@H](CCC(N)=O)NC(=O)[C@H](CCCCN)NC(=O)[C@H](CCCNC(=N)N)NC(=O)[C@H](CC(C)C)NC(=O)[C@H](CCCNC(=N)N)NC(=O)[C@@H](NC(=O)[C@H](Cc1ccc(O)cc1)NC(=O)[C@H](CC(N)=O)NC(=O)[C@H](CC(=O)O)NC(=O)[C@@H](NC(=O)[C@H](Cc1ccccc1)NC(=O)[C@@H](NC(=O)[C@H](C)NC(=O)[C@H](CC(=O)O)NC(=O)[C@H](CO)NC(=O)[C@@H](N)Cc1cnc[nH]1)C(C)C)[C@@H](C)O)[C@@H](C)O)[C@@H](C)CC)C(C)C)[C@@H](C)CC)C(=O)NCC(=O)N[C@@H](CCCCN)C(=O)O (H-HSDAVFTDNYTRLRKQIAVKKYL[S5]SIL[S5]GK-OH) | 9.68 |  | 
6 | CC[C@H](C)[C@H](NC(=O)[C@H](CO)NC(=O)[C@H](CC(N)=O)NC(=O)[C@H](CC(C)C)NC(=O)[C@H](Cc1ccc(O)cc1)NC(=O)[C@]1(C)CCCC/C=C\CCCC[C@](C)(NC(=O)[C@H](CCC(N)=O)NC(=O)[C@H](CCCCN)NC(=O)[C@H](CCCNC(=N)N)NC(=O)[C@H](CC(C)C)NC(=O)[C@H](CCCNC(=N)N)NC(=O)[C@@H](NC(=O)[C@H](Cc2ccc(O)cc2)NC(=O)[C@H](CC(N)=O)NC(=O)[C@H](CC(=O)O)NC(=O)[C@@H](NC(=O)[C@H](Cc2ccccc2)NC(=O)[C@@H](NC(=O)[C@H](C)NC(=O)[C@H](CC(=O)O)NC(=O)[C@H](CO)NC(=O)[C@@H](N)Cc2cnc[nH]2)C(C)C)[C@@H](C)O)[C@@H](C)O)C(=O)N[C@@H](C)C(=O)N[C@@H](C(C)C)C(=O)N[C@@H](CCCCN)C(=O)N1)C(=O)N[C@@H](CC(C)C)C(=O)N[C@@H](CC(N)=O)C(=O)NCC(=O)N[C@@H](CCCCN)C(=O)O (H-HSDAVFTDNYTRLRKQ[X1]AVK[X1]YLNSILNGK-OH; staple (Z) 17-21) | 9.48 |  | 
7 | CC[C@H](C)[C@H](NC(=O)[C@H](CO)NC(=O)[C@H](CC(N)=O)NC(=O)[C@H](CC(C)C)NC(=O)[C@H](Cc1ccc(O)cc1)NC(=O)[C@H](CCCCN)NC(=O)[C@H](CCCCN)NC(=O)[C@@H](NC(=O)[C@H](C)NC(=O)[C@@H]1CCCCNC(=O)CC[C@H](NC(=O)[C@H](CCCN=C(N)N)NC(=O)[C@@H](NC(=O)[C@H](Cc2ccc(O)cc2)NC(=O)[C@H](CC(N)=O)NC(=O)[C@H](CC(=O)O)NC(=O)[C@@H](NC(=O)[C@H](Cc2ccccc2)NC(=O)[C@@H](NC(=O)[C@H](C)NC(=O)[C@H](CC(=O)O)NC(=O)[C@H](CO)NC(=O)[C@@H](N)Cc2cnc[nH]2)C(C)C)[C@@H](C)O)[C@@H](C)O)C(=O)N[C@@H](CCCN=C(N)N)C(=O)N[C@@H](CCCCN)C(=O)N[C@@H](CCC(N)=O)C(=O)N1)C(C)C)C(=O)N[C@@H](CC(C)C)C(=O)N[C@@H](CC(N)=O)C(=O)NCC(=O)N[C@@H](CCCCN)C(=O)O (H-HSDAVFTDNYTRERKQKAVKKYLNSILNGK-OH; lactam 13-17) | 8.94 |  | 
8 | H-HSDAVFTDNYTRLRKQIAVKEYLNKILNGK-OH | 9.68 |  | 
9 | C=CCCC[C@](C)(NC(=O)[C@H](CCCCN)NC(=O)[C@@H](NC(=O)[C@H](C)NC(=O)[C@@H](NC(=O)[C@H](CCC(N)=O)NC(=O)[C@H](CCCCN)NC(=O)[C@H](CCCN=C(N)N)NC(=O)[C@H](CC(C)C)NC(=O)[C@H](CCCN=C(N)N)NC(=O)[C@@H](NC(=O)[C@H](Cc1ccc(O)cc1)NC(=O)[C@H](CC(N)=O)NC(=O)[C@H](CC(=O)O)NC(=O)[C@@H](NC(=O)[C@H](Cc1ccccc1)NC(=O)[C@@H](NC(=O)[C@H](C)NC(=O)[C@H](CC(=O)O)NC(=O)[C@H](CO)NC(=O)[C@@H](N)Cc1cnc[nH]1)C(C)C)[C@@H](C)O)[C@@H](C)O)[C@@H](C)CC)C(C)C)C(=O)N[C@@H](Cc1ccc(O)cc1)C(=O)N[C@@H](CC(C)C)C(=O)N[C@@H](CC(N)=O)C(=O)N[C@@](C)(CCCC=C)C(=O)N[C@H](C(=O)N[C@@H](CC(C)C)C(=O)N[C@@H](CC(N)=O)C(=O)NCC(=O)N[C@@H](CCCCN)C(=O)O)[C@@H](C)CC (H-HSDAVFTDNYTRLRKQIAVK[S5]YLN[S5]ILNGK-OH) | 8.42 |  | 
10 | H-HSDAVFTDNYTRERKQKAVKKYLNSILNGK-OH | 8.18 |  | 
11 | CC[C@H](C)[C@H](NC(=O)[C@H](CCC(N)=O)NC(=O)[C@H](CCCCN)NC(=O)[C@H](CCCNC(=N)N)NC(=O)[C@H](CC(C)C)NC(=O)[C@H](CCCNC(=N)N)NC(=O)[C@@H](NC(=O)[C@H](Cc1ccc(O)cc1)NC(=O)[C@H](CC(N)=O)NC(=O)[C@H](CC(=O)O)NC(=O)[C@@H](NC(=O)[C@H](Cc1ccccc1)NC(=O)[C@@H](NC(=O)[C@H](C)NC(=O)[C@H](CC(=O)O)NC(=O)[C@H](CO)NC(=O)[C@@H](N)Cc1cnc[nH]1)C(C)C)[C@@H](C)O)[C@@H](C)O)C(=O)N[C@@H](C)C(=O)N[C@H](C(=O)N[C@@H](CCCCN)C(=O)N[C@@]1(C)CCCC/C=C\CCCC[C@@](C)(C(=O)N[C@H](C(=O)N[C@@H](CC(C)C)C(=O)N[C@@H](CC(N)=O)C(=O)NCC(=O)N[C@@H](CCCCN)C(=O)O)[C@@H](C)CC)NC(=O)[C@H](CC(N)=O)NC(=O)[C@H](CC(C)C)NC(=O)[C@H](Cc2ccc(O)cc2)NC1=O)C(C)C (H-HSDAVFTDNYTRLRKQIAVK[X1]YLN[X1]ILNGK-OH; staple (Z) 21-25) | 8.82 |  | 
12 | CC[C@H](C)[C@H](NC(=O)[C@H](CCC(N)=O)NC(=O)[C@H](CCCCN)NC(=O)[C@H](CCCNC(=N)N)NC(=O)[C@H](CC(C)C)NC(=O)[C@H](CCCNC(=N)N)NC(=O)[C@@H](NC(=O)[C@H](Cc1ccc(O)cc1)NC(=O)[C@H](CC(N)=O)NC(=O)[C@H](CC(=O)O)NC(=O)[C@@H](NC(=O)[C@H](Cc1ccccc1)NC(=O)[C@@H](NC(=O)[C@H](C)NC(=O)[C@H](CC(=O)O)NC(=O)[C@H](CO)NC(=O)[C@@H](N)Cc1cnc[nH]1)C(C)C)[C@@H](C)O)[C@@H](C)O)C(=O)N[C@@H](C)C(=O)N[C@H](C(=O)N[C@@H](CCCCN)C(=O)N[C@H]1CCC(=O)NCCCC[C@@H](C(=O)N[C@H](C(=O)N[C@@H](CC(C)C)C(=O)N[C@@H](CC(N)=O)C(=O)NCC(=O)N[C@@H](CCCCN)C(=O)O)[C@@H](C)CC)NC(=O)[C@H](CC(N)=O)NC(=O)[C@H](CC(C)C)NC(=O)[C@H](Cc2ccc(O)cc2)NC1=O)C(C)C (H-HSDAVFTDNYTRLRKQIAVKEYLNKILNGK-OH; lactam 21-25) | 9.96 |  | 
